The target in one data set is human URAT1 (Homo sapiens (Human), UniProt Q96S37). Nature of the data set: URAT1 inhibition assay: [8-14C] urate uptake in hURAT1-HEK cells. In kind it is cell-based. The settings on record: for inhibition at 10 µM: hURAT1-HEK cells; for IC50: 14C urate uptake in hURAT1-HEK cells. Here is the method:
URAT1 (Uric Acid Transporter 1) is expressed on the apical membrane in renal tubules. It mediates the re-uptake of uric acid from the urine into the blood.
A suitable assay involves transfection of cells (e g human embryonic kidney cells; “HEK”) with a vector encoding human URAT1, followed by determination of the ability of transfected cells to take up radiolabeled uric acid. The activity of compounds as URAT1 inhibitors is evaluated by their ability to block uric acid uptake by transfected cells.
Test Compounds and Chemicals:
Urate (50-60 mCi/mmol; American Radio Chemicals, Cat. No. ARC0513).
Subcloning of hURAT1 into the Expression Vector:
Plasmid vector pCMV6-XL5 containing hURAT1 cDNA (Cat. No. SC125624) and the expression vector pCMV6-Neo (Cat. No. pCMVNEO) were obtained from OriGene Technologies, Inc. The full-length hURAT1 cDNA was obtained from the vector pCMV6-XL5 and subcloned into the expression vector pCMV6-Neo to create the hURAT1 expression plasmid pCMV6-hURAT1. The sequences were verified by automatic DNA sequencing.
Cell Culture, Transfection of URAT1 Expressing Plasmids and the Establishment of Stably Expressing HEK Cells for hURAT1:
For transfection experiments, cells were plated on 60 mm dishes in 1 ml media per dish. […] Stable transfectants expressing hURAT1 (herein after referred as hURAT1-HEK cells) or cells having only the expression vector pCMV6-Neo (herein after referred as mock-HEK cells) were verified using reverse transcription polymerase chain reaction (RT-PCR) methods.
[8-^14C] Urate Uptake Assay:
Before the uptake assay started, the culture medium was removed and the cells were incubated for 5 min in 0.6 ml of HBSS. After that HBSS was removed, the prepared reaction solutions were added into each well and incubated for 5 min at room temperature. Then the reaction solution was removed, cells were washed twice with 0.6 ml of cold HBSS and lysed with 0.2 ml of 0.1 M NaOH for 20 min. […] Test compounds were dissolved in DMSO and the same concentration of DMSO was added into the wells of mock-HEK cells and the hURAT1-HEK cells that didn't contain test compounds. For each test compound, the uptake assay was performed 2 times and carried out in triplicate. Urate uptake of the cells for each test condition was presented as the average percent inhibition in comparison to the DMSO control. The radioactivity values obtained for the wells that contained DMSO were taken as 100% uptake of the cells. The observed concentration-percent inhibition data were fitted to a sigmoidal concentration-effect model, where: % Inhibition=(100*Conc^Slope)/(IC50^Slope+Conc^Slope)
In this example the compounds were not necessarily tested simultaneously.

Data set [1] in a line: Rat pilot single-dose oral pharmacokinetic study with Compound EC. The settings on record: 100 mg/kg single oral gavage; for Compound EC concentration in plasma, individual rats: male Sprague-Dawley rat. It counts as in vivo. As for the experimental part:
Rat Pilot Single-Dose Oral Pharmacokinetic Study with Compound EC
Determination of the Plasma Profile of Compound EC Following Single Oral Gavage Administration to Male Rats.
(§1) Test compound was suspended in 1% HPMC using a tissue homogenizer to minimize particles and maximize uniformity of the suspension and stored at 4° C. The formulations was thoroughly mixed just prior to administration. A dose of 100 mg/kg of test compounds or vehicle (1% HPMC) was administered to male Sprague-Dawley rats by single oral gavage. […] The blood samples were centrifuged within 30 minutes of collection under refrigeration (2-8° C.) for 7 minutes at 6000 rpm. Following centrifugation, the plasma were harvested into a single tube for each animal at each time point and immediately frozen at −80° C. until analyzed using LC/MS-MS. Serial plasma concentration time data was subjected to pharmacokinetic analyses using WinNonlin Standard (v2.1, Pharsight Corporation) and Microsoft EXCEL.
1. Rats received single oral gavage of Compound EC, 100 mg/kg, and plasma was collected at certain times.
(§2) 2. Plasma was stored at −80° C. until the day of analysis.
(§3) 3. Samples were thawed on 37° C. bath for 5 min and vortexed at top speed for 10 sec.
(§4) 4. Rat plasma, 0.1 mL was mixed with 0.2 mL Acetonitrile, vortexed 1 min, spun down 14000 rpm, 17000 g, at 4° C., for 25 min.
(§5) 5. Supernatants were filtered through 0.45 micron, 4 mm, PTFE membrane syringe filter (Phenomenex # AF0-3102-52), and 15 microL were injected and resolved on Luna 3 micron, 100 A pore, C8(2), 150×3 mm, reverse phase column (Phenomenex#00F-4248-YO, SN#259151-7) in 50 min linear gradient from 40% to 69% of (0.1% Formic Acid, 89.9% Acetonitrile, 10% Methanol) at 0.25 mL/min, 107 bar, 37° C. column temperature, method 406975M1, AGILENT sequence 0226-09A, Agilent 1100 LC-MS.
(§6) All samples were run in duplicate, 210 nm and 230 nm Absorbances, Negative and Positive ionization spectrograms were recorded.
Step 1. Plasma from “Vehicle” animals (pooled), 0.19 mL, was mixed with 0.01 mL 20× stock of Compound EC in Methanol to make 500 microM, 250 microM, 125 microM, concentrations of Compound EC in plasma.
For example: 190 microL plasma+10 microL of 10 mM Compound EC in methanol=0.2 mL plasma with 500 microM Compound EC.
(§7) Step 2. Samples from step 1 were vortexed for 10 sec at top speed.
(§8) Step 3. 0.4 mL of acetonitrile was added to all samples from Step 2, and all vials were vortexed at top speed for 1 min.
(§9) Step 4. All samples from step 3 were spun down 14000 rpm, 17000 g, at 4° C., for 25 min.
(§10) Step 5. Supernatants were filtered through 0.45 micron, 4 mm, PTFE membrane syringe filter (Phenomenex # AF0-3102-52), 15 microL were injected and resolved on Luna 3 micron, 100 A pore, C8(2), 150×3 mm, reverse phase column (Phenomenex#00F-4248-YO, SN#259151-7) in 50 min linear gradient from 40% to 69% of (0.1% Formic Acid, 89.9% Acetonitrile, 10% Methanol) at 0.25 mL/min, 107 bar, 37° C. column temperature. All samples were run in duplicate, 210 nm and 230 nm Absorbances, Negative and Positive ionization spectrograms were recorded.

The nature of data set [2]: Rat pilot single-dose oral pharmacokinetic study with Compound EG. In kind it is in vivo. The settings on record: 100 mg/kg single oral gavage; for Concentration of Compound EG in rat plasma, individual rats: male Sprague-Dawley rat. Here is the method:
Rat Pilot Single-Dose Oral Pharmacokinetic Study with Compound EG
Determination of the Plasma Profile of Compound EG Following Single Oral Gavage Administration to Male Rats.
as §1
1. Rats received single oral gavage of Compound EG, 100 mg/kg, and plasma was collected at certain times.
as §2, §3, §4, §5, §6
Step 1. Plasma from “Vehicle” animals (pooled), 0.19 mL, was mixed with 0.01 mL 20× stock of Compound EG in Methanol to make 500 microM, 250 microM, 125 microM, . . . , concentrations of Compound EG in plasma.
For example: 190 microL plasma+10 microL of 10 mM Compound EG in methanol=0.2 mL plasma with 500 microM Compound EG.
as §7, §8, §9, §10

[3] abbreviates: Sprague-Dawley, rat, male rats, plasma.
Where [4] appears, read: Sprague-Dawley, rat, male rats, plasma, read-out: AUC0-24.
The mark [5] stands for this setting: male, Sprague-Dawley, rat, plasma, 0 HR.
Setting [6] is: male, Sprague-Dawley, rat, plasma, 0.25 HR.
Setting [7] is: male, Sprague-Dawley, rat, plasma, 0.5 HR.
[8] abbreviates: male, Sprague-Dawley, rat, plasma, 1 HR.
Setting [9] is: male, Sprague-Dawley, rat, plasma, 2 HR.
Setting [10] is: male, Sprague-Dawley, rat, plasma, 4 HR.
The mark [11] stands for this setting: male, Sprague-Dawley, rat, plasma, 6 HR.
Where [12] appears, read: male, Sprague-Dawley, rat, plasma, 8 HR.
Setting [13] is: male, Sprague-Dawley, rat, plasma, 24 HR.

Each structure is given as a SMILES string. Several values for one entry are separate records, joined by “and”; a condition that tells them apart may be missing. Equal values may be shown once.

Here are results for 7 compounds from patent US8889724B2, “Tetrazole compounds for reducing uric acid” (Wellstat Therapeutics Corporation, priority 2008, dated 2014).

For orientation: inhibition means the percentage by which the read-out fell short of the control. What is called Cmax is the highest concentration seen after dosing. By IC50 is commonly meant the point on the concentration scale where inhibition reaches its midpoint. Read a high IC50 as weaker potency in that assay.

Chain of human URAT1 (Q96S37 whole entry): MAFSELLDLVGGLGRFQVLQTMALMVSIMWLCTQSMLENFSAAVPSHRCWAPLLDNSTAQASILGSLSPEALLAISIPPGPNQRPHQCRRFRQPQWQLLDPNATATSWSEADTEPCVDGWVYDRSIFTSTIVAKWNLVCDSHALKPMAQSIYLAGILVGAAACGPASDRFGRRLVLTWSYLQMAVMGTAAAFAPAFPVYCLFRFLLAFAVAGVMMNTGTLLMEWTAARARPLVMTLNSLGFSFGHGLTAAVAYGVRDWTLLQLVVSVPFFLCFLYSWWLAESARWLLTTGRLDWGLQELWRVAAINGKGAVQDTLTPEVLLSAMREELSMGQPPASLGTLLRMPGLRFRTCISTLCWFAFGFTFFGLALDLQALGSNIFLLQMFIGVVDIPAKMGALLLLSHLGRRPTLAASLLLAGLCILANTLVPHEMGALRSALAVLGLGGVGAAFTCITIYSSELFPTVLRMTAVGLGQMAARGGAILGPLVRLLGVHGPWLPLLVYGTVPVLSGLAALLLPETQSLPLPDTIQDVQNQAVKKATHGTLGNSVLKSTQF

Consider `Fc1cccc(F)c1COc1ccc(Cc2nnn[nH]2)cc1` [BD, 5-(4-(2,6-Difluorobenzyloxy)benzyl)-1H-tetrazole], for which, on human URAT1, the inhibition at 10 µM was found to be 56.6%.
Consider `Cc1cccc(C)c1COc1cccc(Cc2nnn[nH]2)c1` [Compound EC, 5-(3-(2,6-Dimethylbenzyloxy)benzyl)-1H-tetrazole], for which the maximum concentration (Cmax) in data set [1] (setting [3]) stood at 61 µg/mL. Besides, in data set [1] (setting [4]), the AUC(0-t) was found to be 672 µg·h/mL. In addition, the “Compound EC concentration in plasma, individual rats” value in data set [1] (0.25 HR) was 114 µM and 67 µM; in data set [1] (0.5 HR) it was 45 µM and 25 µM; in data set [1] (1 HR) it was 17 µM and 222 µM; in data set [1] (2 HR), 384 µM and 29 µM; in data set [1] (4 HR), 35 µM and 11 µM; in data set [1] (6 HR), 85 µM and 73 µM and 62 µM. Moreover, the “Compound EC concentration in plasma, individual rats” value is 107 µM and 262 µM in data set [1] (8 HR); 0 µM in data set [1] (24 HR). In data set [1] (setting [5]), the concentration at 0 h came to 0 µg/mL. Further, the concentration at 0.25 h in data set [1] (setting [6]) is 27 µg/mL. The concentration at 0.5 h in data set [1] (setting [7]) is 10 µg/mL. The concentration at 1 h in data set [1] (setting [8]) came to 35 µg/mL. Further, in data set [1] (setting [9]), the concentration at 2 h amounted to 61 µg/mL. Besides, the concentration at 4 h in data set [1] (setting [10]) came to 7 µg/mL. Also, in data set [1] (setting [11]), the concentration at 6 h is 22 µg/mL. The concentration at 8 h in data set [1] (setting [12]) came to 54 µg/mL. In data set [1] (setting [13]), the concentration at 24 h came out at 0 µg/mL. In data set [1] (rat, LC-MS), the “Detection in plasma (in words)” value is reported as “readily detected”. For the same compound, at human URAT1, the inhibition at 10 µM was determined as 95.2%. The same compound showed a concentration for half-maximal inhibition (IC50) on human URAT1 of 0.24 µM.
Take `Cc1ccc(Cc2nnn[nH]2)cc1OCc1c(C)cccc1C` [Compound EG, 5-(3-(2,6-Dimethylbenzyloxy)-4-methylbenzyl)-1H-tetrazole]: in data set [2] (setting [3]), the Cmax came to 22 µg/mL. In data set [2] (setting [4]), the AUC(0-t) worked out at 94.9 µg·h/mL. Also, the “Concentration of Compound EG in rat plasma, individual rats” value in data set [2] (0.25 HR) is 19 µM and 27 µM; in data set [2] (0.5 HR), 29 µM and 18 µM; in data set [2] (1 HR), 101 µM and 42 µM; in data set [2] (2 HR), 25 µM and 50 µM; in data set [2] (4 HR) it was 14 µM and 23 µM; in data set [2] (6 HR), 10 µM and 17 µM. Besides, the “Concentration of Compound EG in rat plasma, individual rats” value was 5 µM and 19 µM in data set [2] (8 HR); 2 µM and 0 µM in data set [2] (24 HR). The concentration at 0 h in data set [2] (setting [5]) came to 0 µg/mL. Also, in data set [2] (setting [6]), the concentration at 0.25 h was 7 µg/mL. In addition, the concentration at 0.5 h in data set [2] (setting [7]) turned out to be 7 µg/mL. In data set [2] (setting [8]), the concentration at 1 h stood at 22 µg/mL. Also, in data set [2] (setting [9]), the concentration at 2 h came out at 12 µg/mL. Also, in data set [2] (setting [10]), the concentration at 4 h was 6 µg/mL. The concentration at 6 h in data set [2] (setting [11]) turned out to be 4 µg/mL. The concentration at 8 h in data set [2] (setting [12]) was determined as 4 µg/mL. The concentration at 24 h in data set [2] (setting [13]) stood at 0 µg/mL. Also, the “Detection in plasma (in words)” value in data set [2] (rat, LC-MS) is on record as “readily detected”. The same compound registered an inhibition at 10 µM on human URAT1 of 95.6%. Moreover, the IC50 on human URAT1 came out at 0.13 µM.
On human URAT1, `COc1ccc(Cc2nnn[nH]2)cc1OCc1c(C)cccc1C` [ED, 5-(3-(2,6-Dimethylbenzyloxy)-4-methoxybenzyl)-1H-tetrazole] had an inhibition at 10 µM of 96% and a 50% inhibitory concentration (IC50) of 0.25 µM.
As to `Cc1cccc(C)c1COc1cccc(CCc2nnn[nH]2)c1` [EF, 5-(3-(2,6-Dimethylbenzyloxy)phenethyl)-1H-tetrazole], at human URAT1, at 10 µM the inhibition was 92% and the IC50 is 0.74 µM.
Compound `Cc1cccc(C)c1COc1cccc(Cc2nnn[nH]2)c1C` [EH, 5-(3-(2,6-Dimethylbenzyloxy)-2-methylbenzyl)-1H-tetrazole] returned an inhibition at 10 µM on human URAT1 of 80%.
As to `COc1c(Cc2nnn[nH]2)cccc1OCc1c(C)cccc1C` [EI, 5-(3-(2,6-Dimethylbenzyloxy)-2-methoxybenzyl)-1H-tetrazole], at 10 µM the inhibition against human URAT1 was 44%.
